The values below come from PMC9165844 (PLoS ONE, 2022).

One series has as its system astrocytes. Kind of series: Cytotoxic effect by MTT assay on astrocytes. Conditions: for Astrocytes viability: control for cytotoxicity effect; for Cytotoxicity in astrocyte cultures: MTT, 12.5-200 μM. (Formazan colour is commonly taken as a measure of viable cells.)
A further series has as its target AChE (Electrophorus electricus, UniProt O42275). Kind of series: biochemical. Conditions: for Ki: read-out: AChE inhibition constant (Ki).
Series [1] is described as follows: Solubility in solvents noted for the synthesized compounds. It is filed as physicochemical. The following applies: qualitative.
Another series deals with T1, Aβ1–42 (Homo sapiens, UniProt P05067).
T1 construct: Aβ of 42 aa residues (Aβ1–42) represents the most amyloidogenic and toxic form; purchased Calbiochem PP69
Nature of the series: Inhibition of Aβ1–42 aggregation by Thioflavin T (ThT) assay. It is filed as biochemical. Conditions: compound at 100 μM, 48 h, 37°C, ThT fluorescence; read-out: Percentage of inhibition of Aβ1–42 fibrillation.

The target in another series is BACE 1 (Homo sapiens, UniProt P56817). Nature of the series: Inhibition of BACE 1 activity (FRET kit). Conditions: for BACE1 inhibitory activity (in words): FRET.
Another series has as its system NIH3T3 fibroblasts. Nature of the series: Cytotoxic effect by MTT assay on NIH3T3 fibroblasts. The following applies: 12.5-200 μM.
Another series has as its system PC12. Nature of the series: Cytotoxic effect by MTT assay on PC12 cells. Conditions: 12.5-200 μM.

Entries after “also recorded” stand apart in the source; their conditions may differ.

Chain of AChE (O42275 24-633 limits assumed): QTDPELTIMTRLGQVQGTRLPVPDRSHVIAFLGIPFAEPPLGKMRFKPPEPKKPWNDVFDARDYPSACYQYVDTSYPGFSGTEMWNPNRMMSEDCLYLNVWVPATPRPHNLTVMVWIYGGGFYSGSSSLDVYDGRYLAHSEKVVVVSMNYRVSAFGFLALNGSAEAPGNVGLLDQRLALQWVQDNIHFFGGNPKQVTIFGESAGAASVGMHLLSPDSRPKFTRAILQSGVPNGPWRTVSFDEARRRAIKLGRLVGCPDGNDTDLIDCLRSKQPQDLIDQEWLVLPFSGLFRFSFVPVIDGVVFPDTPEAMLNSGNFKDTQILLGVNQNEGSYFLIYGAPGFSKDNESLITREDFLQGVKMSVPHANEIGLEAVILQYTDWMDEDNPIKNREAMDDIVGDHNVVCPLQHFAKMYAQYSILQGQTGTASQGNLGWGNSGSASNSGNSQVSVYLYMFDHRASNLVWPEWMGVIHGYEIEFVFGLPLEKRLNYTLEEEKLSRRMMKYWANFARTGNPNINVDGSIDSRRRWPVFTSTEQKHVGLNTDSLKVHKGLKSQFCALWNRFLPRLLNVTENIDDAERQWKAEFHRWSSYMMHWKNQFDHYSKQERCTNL
Chain of BACE 1 (P56817 46-501): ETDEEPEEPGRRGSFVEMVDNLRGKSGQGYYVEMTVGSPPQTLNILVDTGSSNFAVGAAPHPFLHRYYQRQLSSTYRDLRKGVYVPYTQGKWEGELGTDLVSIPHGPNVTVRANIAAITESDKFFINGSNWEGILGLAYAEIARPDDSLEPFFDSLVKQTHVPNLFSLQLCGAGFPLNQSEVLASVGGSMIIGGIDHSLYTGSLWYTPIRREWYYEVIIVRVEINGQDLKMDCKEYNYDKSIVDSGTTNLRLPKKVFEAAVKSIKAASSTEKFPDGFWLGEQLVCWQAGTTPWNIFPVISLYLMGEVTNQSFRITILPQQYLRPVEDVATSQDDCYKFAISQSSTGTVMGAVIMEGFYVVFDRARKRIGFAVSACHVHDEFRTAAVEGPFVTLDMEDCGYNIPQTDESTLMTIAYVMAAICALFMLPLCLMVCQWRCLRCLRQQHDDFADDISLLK
T1 sequence (P05067 672-713): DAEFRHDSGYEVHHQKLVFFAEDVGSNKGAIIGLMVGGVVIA

Regarding `[Cl][Cd][Cl]` [Cadmium chloride, reference compound], the Astrocytes viability is on record as 25% with astrocytes (at 100 μM) and “above 80%” with astrocytes (at concentrations 1 μM ≤).

The Ki is the dissociation constant of the complex between target and ligand, obtained from inhibition or displacement. What is called inhibition is how much of the control response was suppressed. The IC50 is the concentration needed to halve the response being measured. A higher IC50 goes with a need for much substance. For `COc1ccc(CN)cc1OCCN1CCCC1` [Compound F3S4-m, (4-methoxy-3-(2-(pyrrolidin-1-yl)ethoxy)phenyl) methanamine], at AChE, the “AChE inhibitory activity (in words)” value is given as “showed inhibitory activity” and the Ki was determined as 0.19 µM. The “Solubility (solvents)” value in series [1] is recorded as “MetOH, EtOH, Acetone”. The inhibition at 100 µM at Aβ1–42 was 30.5%. On BACE 1, it took 8.38 µM to reach half-maximal inhibition (IC50) and the “BACE1 inhibitory activity (in words)” value was “showed inhibitory activity”. Further, the “Cytotoxicity in fibroblast cultures” value with NIH3T3 fibroblasts was “not cytotoxic”. The “Cytotoxicity in astrocyte cultures” value in the series with astrocytes is “not cytotoxic”. In the series on PC12, the “Cytotoxicity in PC12 cell cultures” value is reported as “not cytotoxic”.

On to `COc1ccc(CN)cc1OCCN1CCCCC1` [Compound F2S4-m, (4-methoxy-3-(2-(piperidin-1-yl)ethoxy)phenyl) methanamine], for which, at AChE, the “AChE inhibitory activity (in words)” value is “showed inhibitory activity” and the Ki turned out to be 0.4 µM. Moreover, the “Solubility (solvents)” value in series [1] is on record as “MetOH, EtOH, Acetone, CHCl3, EtOAc, H2O”. The inhibition at 100 µM at Aβ1–42 is 60.9%. Besides, on BACE 1, the IC50 worked out at 16 µM and the “BACE1 inhibitory activity (in words)” value is “showed inhibitory activity”. In the series on NIH3T3 fibroblasts, the “Cytotoxicity in fibroblast cultures” value is listed as “not cytotoxic”. Further, the “Cytotoxicity in astrocyte cultures” value in the series on astrocytes is “not cytotoxic”. The “Cytotoxicity in PC12 cell cultures” value in the series on PC12 is reported as “not cytotoxic”.

`COc1cc(CN)ccc1OCCN1CCCCC1` [Compound F2S4-p, (3-methoxy-4-(2-(piperidin-1-yl)ethoxy)phenyl) methanamine]: on AChE, the “AChE inhibitory activity (in words)” value is recorded as “no significant effect; also recorded: did not show inhibitory activity; also recorded: did not show inhibition” and the Ki is more than 100 µM. The “Solubility (solvents)” value in series [1] was “MetOH, EtOH, water”. In addition, at Aβ1–42, the inhibition at 100 µM stood at 42.1%. Further, on BACE 1, the “BACE1 inhibitory activity (in words)” value is “not possible to determine its IC50 value; also recorded: did not show inhibitory activity; also recorded: did not show inhibition”. Also, the “Cytotoxicity in fibroblast cultures” value in the series on NIH3T3 fibroblasts is on record as “showed cytotoxic”.
